Source: patent US20240101572A1, “DIHYDROOXADIAZINONE COMPOUND AND PHARMACEUTICAL USE THEREOF” (Japan Tobacco Inc., priority 2022, published 2024)
Like-named read-outs stand apart in the source and are kept apart here.

Tests used:
[1] = target: full-length human PLD1 (Homo sapiens (Human), UniProt Q13393); test: Evaluation of human PLD1 enzyme inhibitory activity (Amplex Red / choline oxidase fluorescence); format: biochemical
Method in brief: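 N-terminally FLAG-tagged full-length human PLD1 (1-1036), expressed in Expi293F and FLAG-purified, incubated with compound (5% DMSO final) and 1,2-diheptanoyl-sn-glycero-3-phosphocholine for 60 min at room temperature in HEPES pH 7.5 buffer. Released choline detected by Amplex Red/choline oxidase/HRP fluorescence.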

[2] = target: full-length human PLD2 (Homo sapiens (Human), UniProt O14939); test: Evaluation of human PLD2 enzyme inhibitory activity (Amplex Red / choline oxidase fluorescence); format: biochemical
Sequence of full-length human PLD2 (O14939 whole entry): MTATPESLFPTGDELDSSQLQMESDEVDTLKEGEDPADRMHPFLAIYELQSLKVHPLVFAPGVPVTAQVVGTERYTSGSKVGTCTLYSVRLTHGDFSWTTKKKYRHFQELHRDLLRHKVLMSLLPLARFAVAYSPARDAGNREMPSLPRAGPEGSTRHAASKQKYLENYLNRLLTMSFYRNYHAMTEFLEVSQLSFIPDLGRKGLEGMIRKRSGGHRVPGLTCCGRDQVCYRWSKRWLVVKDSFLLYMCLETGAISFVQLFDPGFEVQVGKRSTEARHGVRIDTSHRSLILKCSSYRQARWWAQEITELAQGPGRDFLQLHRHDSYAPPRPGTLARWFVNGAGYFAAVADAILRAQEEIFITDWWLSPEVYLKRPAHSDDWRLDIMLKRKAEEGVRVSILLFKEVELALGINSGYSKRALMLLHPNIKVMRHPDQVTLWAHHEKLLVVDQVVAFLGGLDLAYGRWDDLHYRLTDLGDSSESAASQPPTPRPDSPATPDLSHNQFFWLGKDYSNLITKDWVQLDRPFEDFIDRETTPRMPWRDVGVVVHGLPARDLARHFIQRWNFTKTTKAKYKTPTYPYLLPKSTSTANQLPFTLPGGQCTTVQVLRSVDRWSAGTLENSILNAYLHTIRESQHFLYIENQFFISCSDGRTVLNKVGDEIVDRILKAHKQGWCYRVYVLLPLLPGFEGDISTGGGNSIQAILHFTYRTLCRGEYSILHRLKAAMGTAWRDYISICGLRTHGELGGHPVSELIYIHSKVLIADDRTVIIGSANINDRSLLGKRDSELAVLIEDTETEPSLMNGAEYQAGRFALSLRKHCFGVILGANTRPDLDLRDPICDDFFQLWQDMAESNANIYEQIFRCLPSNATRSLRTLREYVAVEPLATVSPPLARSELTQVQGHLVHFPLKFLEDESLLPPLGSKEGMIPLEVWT
Method in brief: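 Enzyme was N-terminal FLAG-tagged full-length human PLD2 (1-933), expressed in Expi293F cells and anti-FLAG purified. Compound (5% DMSO final) was incubated with enzyme (6 nmol/L solution) and 1,2-diheptanoyl-PC (6 mmol/L solution) in HEPES pH 7.5, KCl, EGTA, MgCl2, NP-40, BSA buffer for 60 min at room temperature. Choline was detected with Amplex Red/choline oxidase/HRP.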

[3] = full-length human PLD1 enzyme, read-out: PLD1 IC50
[4] = full-length human PLD2 enzyme, read-out: PLD2 IC50

Sequence of full-length human PLD1 (Q13393 other isoform, or with tags, fused parts or gaps): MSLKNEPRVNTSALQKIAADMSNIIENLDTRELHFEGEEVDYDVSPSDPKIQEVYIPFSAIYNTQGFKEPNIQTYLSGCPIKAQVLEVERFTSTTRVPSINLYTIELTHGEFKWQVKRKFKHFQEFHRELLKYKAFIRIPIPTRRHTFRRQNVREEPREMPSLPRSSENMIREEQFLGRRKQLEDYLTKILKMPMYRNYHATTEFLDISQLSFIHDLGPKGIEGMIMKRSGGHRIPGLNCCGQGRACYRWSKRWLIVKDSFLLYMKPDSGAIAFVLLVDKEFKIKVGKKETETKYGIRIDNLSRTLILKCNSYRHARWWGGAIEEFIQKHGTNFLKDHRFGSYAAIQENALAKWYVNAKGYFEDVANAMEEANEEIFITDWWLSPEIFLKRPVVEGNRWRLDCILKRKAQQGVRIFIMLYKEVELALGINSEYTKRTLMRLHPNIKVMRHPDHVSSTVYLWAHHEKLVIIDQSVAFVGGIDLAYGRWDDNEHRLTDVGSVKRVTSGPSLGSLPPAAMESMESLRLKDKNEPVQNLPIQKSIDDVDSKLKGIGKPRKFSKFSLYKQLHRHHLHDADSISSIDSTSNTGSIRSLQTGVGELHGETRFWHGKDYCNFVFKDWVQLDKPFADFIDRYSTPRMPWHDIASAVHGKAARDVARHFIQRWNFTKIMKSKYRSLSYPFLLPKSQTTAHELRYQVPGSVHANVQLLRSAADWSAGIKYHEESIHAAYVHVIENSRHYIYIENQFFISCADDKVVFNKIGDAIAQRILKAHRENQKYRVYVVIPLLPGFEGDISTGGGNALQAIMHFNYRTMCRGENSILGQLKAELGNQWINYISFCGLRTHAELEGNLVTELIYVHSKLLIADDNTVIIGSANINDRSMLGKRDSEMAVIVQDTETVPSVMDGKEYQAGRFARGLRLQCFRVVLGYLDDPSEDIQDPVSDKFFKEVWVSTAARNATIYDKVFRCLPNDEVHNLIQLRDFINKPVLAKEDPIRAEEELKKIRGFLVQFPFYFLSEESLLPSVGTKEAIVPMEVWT

Compound | IC50 [1, 3] [nM] | IC50 [2, 4] [nM] | IC50 ([1]; column 1 of continuation tables 2-12 to 2-14, read-out: human PLD1 enzyme inhibitory activity IC50) [nM] | IC50 ([2]; column 2 of continuation tables 2-12 to 2-14, read-out: human PLD2 enzyme inhibitory activity IC50) [nM]
CNC(=O)C(=O)N[C@@H](C)C[C@H]1CC[C@]2(CC1)OC(=O)NN=C2c1ccc(F)cc1 [Example 6] | 69 | 120 | – | –
C[C@@H](C[C@H]1CC[C@]2(CC1)OC(=O)NN=C2c1cc(OCC(F)(F)F)ccc1Br)NC(=O)c1cnn(C)c1 [Example 305] | 15 | < 10 | – | –
CNC(=O)C(=O)N[C@@H](C)C[C@H]1CC[C@]2(CC1)OC(=O)NN=C2c1cn(CC(F)F)nc1I [Example 2-058] | 26 | 66 | – | –
CNC(=O)C(=O)NC[C@H](C)N1CCC2(CC1)OC(=O)NN=C2c1ccc(C#N)cc1Br [Example 329] | 51 | < 10 | – | –
CNC(=O)C(=O)N[C@@H](C)C[C@]1(C#N)CC[C@@]2(CC1)OC(=O)NN=C2c1ccc(OC(F)F)cc1Br [Example 2-067] | 15 | < 10 | – | –
C[C@@H](CN1CCC2(CC1)OC(=O)NN=C2c1ccc(F)cc1Br)NC(=O)C(=O)NC12CC(C1)C2 [Example 202] | 832 | 1250 | – | –
C[C@@H](C[C@H]1CC[C@]2(CC1)OC(=O)NN=C2c1ccc(F)cc1Br)NC(=O)C(F)Cl (mixture of isomers) [Example 278] | 246 | 1180 | – | –
CNC(=O)C(=O)NCC[C@H]1CC[C@]2(CC1)OC(=O)NN=C2c1ccc(F)cc1Br [Example 47] | 119 | < 10 | – | –
CNC(=O)C(=O)N[C@@H](C)C[C@]1(O)CC[C@@]2(CC1)OC(=O)NN=C2c1ccc(F)cc1Br [Example 321] | 42 | < 10 | – | –
C[C@@H](CC1CCC2(CC1)OC(=O)NN=C2c1ccncc1Br)NC(=O)c1cc(Cl)no1 (mixture of isomers) [Example 121] | < 10 | < 10 | – | –
C[C@@H](C[C@H]1CC[C@]2(CC1)OC(=O)NN=C2c1ccc(F)cc1Br)NC(=O)CCS(C)(=O)=O [Example 43] | 221 | 184 | – | –
Cc1cc(C(=O)N[C@@H](C)CN2CCC3(CC2)OC(=O)NN=C3c2ccc(S(C)(=O)=O)cc2Cl)[nH]n1 [Example 128] | 186 | 60 | – | –
C[C@@H](C[C@H]1CC[C@]2(CC1)OC(=O)NN=C2c1ccccc1OC(F)(F)F)NC(=O)c1cc(Cl)no1 [Example 111] | 17 | 21 | – | –
C[C@@H](CN1CCC2(CC1)OC(=O)NN=C2c1ccc(F)cc1Br)NC(=O)c1cnn(C(F)(F)F)c1 [Example 255] | 32 | 14 | – | –
CNC(=O)C(=O)N[C@@H](C)C[C@H]1CC[C@]2(CC1)OC(=O)NN=C2c1cnc(N2CC3CCC(C2)O3)cc1Cl [Example 246] | 15 | < 10 | – | –
[2H]C([2H])([2H])NC(=O)C(=O)N[C@@H](C)C[C@]1(OC)CC[C@@]2(CC1)OC(=O)NN=C2c1cc(F)ccc1Br [Example 2-131] | – | – | 15 | < 10
Cc1cc(C(=O)N[C@@H](C)C[C@H]2CC[C@]3(CC2)OC(=O)NN=C3c2ccc(F)cc2)[nH]n1 [Example 5] | 164 | 171 | – | –
Cc1cc(C(=O)N[C@@H](C)C[C@H]2CC[C@]3(CC2)OC(=O)NN=C3c2ccc(C#N)cc2Cl)[nH]n1 [Example 176] | 29 | 29 | – | –
C[C@@H](C[C@H]1CC[C@]2(CC1)OC(=O)NN=C2c1ccc(OCC(C)(C)O)cc1Br)NC(=O)c1cc(Cl)no1 [Example 131] | 10 | < 10 | – | –
C[C@@H](C[C@H]1CC[C@]2(CC1)OC(=O)NN=C2c1cc(C#N)ccc1Br)NC(=O)c1cn(C)cn1 [Example 2-071] | 13 | < 10 | – | –
CNC(=O)C(=O)N[C@@H](C)CN1CCC2(CC1)OC(=O)NN=C2c1ccc(F)cc1Cl [Example 90] | 45 | 18 | – | –
CNC(=O)C(=O)N[C@@H](C)C[C@H]1CC[C@]2(CC1)OC(=O)NN=C2c1cnc(N2CC3CCC(C2)O3)cc1C [Example 269] | 18 | < 10 | – | –
CNC(=O)C(=O)N[C@@H](C)CC1CC[C@]2(C[C@@H]1F)OC(=O)NN=C2c1ccc(F)cc1Br (stereo partly shown) [Example 285] | < 10 | < 10 | – | –
